Data published in ChEMBL document CHEMBL2413072, “Synthesis and in vitro anticancer studies of novel C-2 arylidene congeners of lantadenes” (2013).

Key:
Assay type in all cases: functional
COLO 205 [1] = experiment: Growth inhibition of human COLO205 cells assessed as cell growth at 10^-8 M by sulforhodamine B assay; details: read-out: Activity
UACC-257 [2] = experiment: Growth inhibition of human UACC257 cells assessed as cell growth at 10^-6 M by sulforhodamine B assay; details: read-out: Activity
CCRF-CEM [3] = experiment: Growth inhibition of human CCRF-CEM cells assessed as cell growth at 10^-4 M by sulforhodamine B assay; details: read-out: Activity
K562 = experiment: Growth inhibition of human K562 cells by sulforhodamine B assay
A498 [4] = experiment: Growth inhibition of human A498 cells assessed as cell growth at 10^-7 M by sulforhodamine B assay; details: read-out: Activity
BT-549 = experiment: Growth inhibition of human BT549 cells assessed as cell growth at 10^-4 M by sulforhodamine B assay; details: read-out: Activity
SF-268 = experiment: Growth inhibition of human SF268 cells assessed as cell growth at 10^-8 M by sulforhodamine B assay; details: read-out: Activity
TK-10 = experiment: Growth inhibition of human TK10 cells assessed as cell growth at 10^-6 M by sulforhodamine B assay; details: read-out: Activity
SK-OV-3 [5] = experiment: Growth inhibition of human SKOV3 cells by sulforhodamine B assay
T47D = experiment: Growth inhibition of human T47D cells assessed as cell growth at 10^-7 M by sulforhodamine B assay; details: read-out: Activity
A549 = experiment: Growth inhibition of human A549/ATCC cells assessed as cell growth at 10^-8 M by sulforhodamine B assay; details: read-out: Activity
COLO 205 [6] = experiment: Growth inhibition of human COLO205 cells assessed as cell growth at 10^-7 M by sulforhodamine B assay; details: read-out: Activity
OVCAR-5 = experiment: Growth inhibition of human OVCAR5 cells assessed as cell growth at 10^-6 M by sulforhodamine B assay; details: read-out: Activity
SK-OV-3 [7] = experiment: Growth inhibition of human SKOV3 cells assessed as cell growth at 10^-4 M by sulforhodamine B assay; details: read-out: Activity
HCT-15 [8] = experiment: Growth inhibition of human HCT15 cells assessed as cell growth at 10^-7 M by sulforhodamine B assay; details: read-out: Activity
MCF7 = experiment: Growth inhibition of human MCF7 cells assessed as cell growth at 10^-6 M by sulforhodamine B assay; details: read-out: Activity
CCRF-CEM [9] = experiment: Growth inhibition of human CCRF-CEM cells by sulforhodamine B assay
NCI-H23 = experiment: Growth inhibition of human NCI-H23 cells assessed as cell growth at 10^-7 M by sulforhodamine B assay; details: read-out: Activity
UACC-257 [10] = experiment: Growth inhibition of human UACC257 cells assessed as cell growth at 10^-4 M by sulforhodamine B assay; details: read-out: Activity
SF-295 = experiment: Growth inhibition of human SF295 cells assessed as cell growth at 10^-6 M by sulforhodamine B assay; details: read-out: Activity
HCT-116 [11] = experiment: Growth inhibition of human HCT116 cells assessed as cell growth at 10^-4 M by sulforhodamine B assay; details: read-out: Activity
HCT-15 [12] = experiment: Growth inhibition of human HCT15 cells assessed as cell growth at 10^-4 M by sulforhodamine B assay; details: read-out: Activity
HCT-116 [13] = experiment: Growth inhibition of human HCT116 cells assessed as cell growth at 10^-7 M by sulforhodamine B assay; details: read-out: Activity
COLO 205 [14] = experiment: Growth inhibition of human COLO205 cells by sulforhodamine B assay
[15] = Growth inhibition of human Hs 578T cells assessed as cell growth at 10^-6 M by sulforhodamine B assay; details: read-out: Activity
UACC-62 = experiment: Growth inhibition of human UACC62 cells assessed as cell growth at 10^-7 M by sulforhodamine B assay; details: read-out: Activity
NCI-H226 = experiment: Growth inhibition of human NCI-H226 cells assessed as cell growth at 10^-4 M by sulforhodamine B assay; details: read-out: Activity
SK-OV-3 [16] = experiment: Growth inhibition of human SKOV3 cells assessed as cell growth at 10^-6 M by sulforhodamine B assay; details: read-out: Activity
SF-539 = experiment: Growth inhibition of human SF539 cells assessed as cell growth at 10^-7 M by sulforhodamine B assay; details: read-out: Activity
M14 = experiment: Growth inhibition of human M14 cells assessed as cell growth at 10^-4 M by sulforhodamine B assay; details: read-out: Activity
NCI-H522 = experiment: Growth inhibition of human NCI-H522 cells assessed as cell growth at 10^-7 M by sulforhodamine B assay; details: read-out: Activity
A498 [17] = experiment: Growth inhibition of human A498 cells assessed as cell growth at 10^-4 M by sulforhodamine B assay; details: read-out: Activity
LOX IMVI = experiment: Growth inhibition of human LOXIMVI cells assessed as cell growth at 10^-7 M by sulforhodamine B assay; details: read-out: Activity
KM12 = experiment: Growth inhibition of human KM12 cells assessed as cell growth at 10^-7 M by sulforhodamine B assay; details: read-out: Activity
[18] = read-out: LC50 (the source's name)
[19] = read-out: pLC50 (the source's name) (converted)

With `CC1(C)C[C@@H](O)[C@]2(C(=O)O)CC[C@]3(C)C(=CC[C@@H]4[C@@]5(C)C/C(=C\C=C\c6ccccc6)C(=O)C(C)(C)[C@@H]5CC[C@]43C)[C@@H]2C1` the growth at 0.01 µM (COLO 205 [1]) was 103%, the growth at 1 µM (UACC-257 [2]) was 89% and the growth at 100 µM (CCRF-CEM [3]) was -19%. The GI50 (K562; read-out: GI50) was 3.74 µM, the LC50 (K562; read-out: LC50) was > 100 µM and the TGI (K562; read-out: TGI) was > 100 µM. For the same compound, the GI50 (K562; read-out: pGI50 (converted)) was 3.72 µM, the LC50 (K562; read-out: pLC50 (converted)) was > 100 µM and the TGI (K562; read-out: pTGI (converted)) was > 100 µM. For the same compound, the growth at 0.1 µM (A498 [4]) was 78%, the growth at 100 µM (BT-549) was -72% and the growth at 0.01 µM (SF-268) was 93%. It also gave a growth at 1 µM (TK-10) of 102%, a GI50 (SK-OV-3 [5]; read-out: GI50) of 3.81 µM and a CC50 (SK-OV-3 [5]; [18]) of 46.4 µM. The TGI (SK-OV-3 [5]; read-out: TGI) was 14.8 µM, the GI50 (SK-OV-3 [5]; read-out: pGI50 (converted)) was 3.8 µM and the CC50 (SK-OV-3 [5]; [19]) was 46.8 µM. For the same compound, the TGI (SK-OV-3 [5]; read-out: pTGI (converted)) was 14.8 µM, the growth at 0.1 µM (T47D) was 96% and the growth at 0.01 µM (A549) was 98%. For the same compound, the growth at 0.1 µM (COLO 205 [6]) was 100%, the growth at 1 µM (OVCAR-5) was 93% and the growth at 100 µM (SK-OV-3 [7]) was -84%. The growth at 0.1 µM (HCT-15 [8]) was 96%, the growth at 1 µM (MCF7) was 95% and the GI50 (CCRF-CEM [9]; read-out: GI50) was 2.79 µM. The CC50 (CCRF-CEM [9]; [18]) was > 100 µM, the TGI (CCRF-CEM [9]; read-out: TGI) was 8.51 µM and the GI50 (CCRF-CEM [9]; read-out: pGI50 (converted)) was 2.82 µM. The CC50 (CCRF-CEM [9]; [19]) was > 100 µM, the TGI (CCRF-CEM [9]; read-out: pTGI (converted)) was 8.51 µM and the growth at 0.1 µM (NCI-H23) was 95%. For the same compound, the growth at 100 µM (UACC-257 [10]) was -88%, the growth at 1 µM (SF-295) was 88% and the growth at 100 µM (HCT-116 [11]) was -55%. It also gave a growth at 100 µM (HCT-15 [12]) of -80%, a growth at 0.1 µM (HCT-116 [13]) of 99% and a GI50 (COLO 205 [14]; read-out: GI50) of 1.97 µM. It also gave an LC50 (COLO 205 [14]; read-out: LC50) of 6.36 µM, a TGI (COLO 205 [14]; read-out: TGI) of 3.54 µM and a GI50 (COLO 205 [14]; read-out: pGI50 (converted)) of 2 µM. It also gave an LC50 (COLO 205 [14]; read-out: pLC50 (converted)) of 6.31 µM, a TGI (COLO 205 [14]; read-out: pTGI (converted)) of 3.55 µM and a growth at 1 µM [15] of 87%. For the same compound, the growth at 0.1 µM (UACC-62) was 93%, the growth at 100 µM (NCI-H226) was -70% and the growth at 1 µM (SK-OV-3 [16]) was 96%. For the same compound, the growth at 0.1 µM (SF-539) was 92%, the growth at 100 µM (M14) was -77% and the growth at 0.1 µM (NCI-H522) was 94%. It also gave a growth at 100 µM (A498 [17]) of -97%, a growth at 0.1 µM (LOX IMVI) of 95% and a growth at 0.1 µM (KM12) of 99%.
`CC(C)=CC(=O)O[C@@H]1CC(C)(C)C[C@H]2C3=CC[C@@H]4[C@@]5(C)CC[C@H](O)C(C)(C)[C@@H]5CC[C@@]4(C)[C@]3(C)CC[C@@]12C(=O)O` [Reduced Lantadene B] gave a growth at 0.01 µM (COLO 205 [1]) of 107%, a growth at 1 µM (UACC-257 [2]) of 98% and a growth at 100 µM (CCRF-CEM [3]) of -16%. For the same compound, the GI50 (K562; read-out: GI50) was 3.38 µM, the LC50 (K562; read-out: LC50) was > 100 µM and the TGI (K562; read-out: TGI) was 93.1 µM. The GI50 (K562; read-out: pGI50 (converted)) was 3.39 µM, the LC50 (K562; read-out: pLC50 (converted)) was > 100 µM and the TGI (K562; read-out: pTGI (converted)) was 93.3 µM. For the same compound, the growth at 0.1 µM (A498 [4]) was 85%, the growth at 100 µM (BT-549) was -65% and the growth at 0.01 µM (SF-268) was 93%. For the same compound, the growth at 1 µM (TK-10) was 86%, the GI50 (SK-OV-3 [5]; read-out: GI50) was 12.8 µM and the CC50 (SK-OV-3 [5]; [18]) was 80.2 µM. It also gave a TGI (SK-OV-3 [5]; read-out: TGI) of 32 µM, a GI50 (SK-OV-3 [5]; read-out: pGI50 (converted)) of 12.9 µM and a CC50 (SK-OV-3 [5]; [19]) of 79.4 µM. For the same compound, the TGI (SK-OV-3 [5]; read-out: pTGI (converted)) was 32.4 µM, the growth at 0.1 µM (T47D) was 95% and the growth at 0.01 µM (A549) was 91%. The growth at 0.1 µM (COLO 205 [6]) was 97%, the growth at 1 µM (OVCAR-5) was 106% and the growth at 100 µM (SK-OV-3 [7]) was -62%. For the same compound, the growth at 0.1 µM (HCT-15 [8]) was 87%, the growth at 1 µM (MCF7) was 88% and the GI50 (CCRF-CEM [9]; read-out: GI50) was 2.83 µM. The CC50 (CCRF-CEM [9]; [18]) was > 100 µM, the TGI (CCRF-CEM [9]; read-out: TGI) was 34.8 µM and the GI50 (CCRF-CEM [9]; read-out: pGI50 (converted)) was 2.82 µM. For the same compound, the CC50 (CCRF-CEM [9]; [19]) was > 100 µM, the TGI (CCRF-CEM [9]; read-out: pTGI (converted)) was 34.7 µM and the growth at 0.1 µM (NCI-H23) was 92%. For the same compound, the growth at 100 µM (UACC-257 [10]) was -34%, the growth at 1 µM (SF-295) was 59% and the growth at 100 µM (HCT-116 [11]) was -80%. For the same compound, the growth at 100 µM (HCT-15 [12]) was -44%, the growth at 0.1 µM (HCT-116 [13]) was 94% and the GI50 (COLO 205 [14]; read-out: GI50) was 3.66 µM. The LC50 (COLO 205 [14]; read-out: LC50) was 93.6 µM, the TGI (COLO 205 [14]; read-out: TGI) was 14.3 µM and the GI50 (COLO 205 [14]; read-out: pGI50 (converted)) was 3.63 µM. For the same compound, the LC50 (COLO 205 [14]; read-out: pLC50 (converted)) was 93.3 µM, the TGI (COLO 205 [14]; read-out: pTGI (converted)) was 14.5 µM and the growth at 1 µM [15] was 92%. It also gave a growth at 0.1 µM (UACC-62) of 90%, a growth at 100 µM (NCI-H226) of -56% and a growth at 1 µM (SK-OV-3 [16]) of 104%. The growth at 0.1 µM (SF-539) was 98%, the growth at 100 µM (M14) was -69% and the growth at 0.1 µM (NCI-H522) was 102%. It also gave a growth at 100 µM (A498 [17]) of -90%, a growth at 0.1 µM (LOX IMVI) of 93% and a growth at 0.1 µM (KM12) of 79%.
